Assay results published in patent publication US20220160820A1, “MODULATORS OF COMPLEMENT ACTIVITY” (Ra Pharmaceuticals, Inc., priority 2019, published 2022).

Columns and labels:
[1] = In vivo drug-drug interaction study with cyclosporine A; settings: following cyclosporine A administration; NHPs
[2] = In-vitro permeability, basement membrane model; assay type: in vitro ADME
Description: In some embodiments, the present disclosure provides methods of inhibiting C5 activity in a tissue by contacting the tissue with a tissue-penetrating C5 inhibitor. As used herein, the term “tissue-penetrating” refers to a property characterized by tissue permeability. […] Tissue penetration may be assessed by ability to cross basement membranes. As used herein, the term “basement membrane” refers to an extracellular matrix (ECM) protein layer separating endothelial cells from underlying tissues. Tissue penetration assessments may be done in vivo or in vitro and may include the use of basement membrane models. Such models may include measuring compound diffusion across artificial basement membranes. Such models may include the use of upper and lower reservoirs separated by an artificial basement membrane. Artificial basement membranes may include any of the ECM gel membranes described in Arends, F. et al. 2016. IntechOpen, DOI: 10.5772/62519, the contents of which are herein incorporated by reference in their entirety. ECM gel membranes may be prepared to include matrix components mimicking those found in the basal lamina of neuromuscular junctions.
The ECM gel membrane was prepared to include matrix components mimicking those found in the basal lamina of neuromuscular junctions.

[3] = test system: Co-cultures of human myotubes and neuroblastoma cells; assay: In vitro NMJ model: autoantibody-induced C5b-9 deposition by immunofluorescence; assay type: cell-based; settings: 10 μM zilucoplan; anti-AChR 637 IgG1; human sera; anti-C5b-9 immunofluorescence
Experimental: Co-cultures of human myotubes and neuroblastoma cells were prepared and cultured with human sera as an in vitro NMJ model. […] Subsequent deposition of C5b-9 was observed by immunofluorescence using an anti-C5b-9 antibody (aE11, AbCam. Cambridge. UK).

[4] = molecular target: surface-bound C5b-9 or soluble membrane attack complex (sC5b-9) (Homo sapiens, UniProt P01031); assay: Binding to C5b-9 / soluble membrane attack complex
[5] = Quantitative whole body analysis (QWBA) of radiolabeled zilucoplan; assay type: in vivo; settings: rats, 24 hours
Experimental: In some embodiments, compound permeability may be determined using quantitative whole body analysis (QWBA). QWBA is a form of analysis that uses radiography to assess distribution of radiolabeled analytes. In some embodiments, radiolabeled compounds are administered to subjects and tissue distribution of the compounds is analyzed over time.
Enhanced permeability of zilucoplan was confirmed by quantitative whole body analysis (QWBA). […] Area under the concentration curve (AUC) for each organ or tissue analyzed was expressed as a percentage of plasma AUC to yield a biodistribution value, presented in Table 2 below. […] 5:297-305, are provided for comparison.

[6] = test system: human C5 polymorphisms (including p.R885>H/C); assay: Binding and inhibitory activities in presence of C5 polymorphisms; settings: presence of clinically-relevant human C5 polymorphisms (including p.R885>H/C)
[7] = In vivo drug-drug interaction study with anti-FcRn monoclonal antibody DX-2507; settings: concomitant dosing of anti-FcRn monoclonal antibody DX-2507; Cynomolgus monkeys
Description: (§1) By inhibiting FcRN, DX-2504 inhibits Fc-mediated recycling, thereby reducing the half-life of IgG antibodies. Administration of DX-2504 serves as a model for intravenous immunoglobulin (IVIG) treatment, which reduces the half-life of IgG antibodies by overwhelming the Fc recycling mechanism with large doses of immunoglobulin.

[8] = Zilucoplan levels in a patient receiving concomitant IVIG; assay type: in vivo, human; settings: patient receiving concomitant therapeutic doses of IVIG
Description: as §1

SMILES: CCCCCCCCCCCCCCCC(=O)N[C@@H](CCC(=O)NCCOCCOCCOCCOCCOCCOCCOCCOCCOCCOCCOCCOCCOCCOCCOCCOCCOCCOCCOCCOCCOCCOCCOCCOCCCCC(=O)NCCCC[C@H](NC(=O)[C@@H](NC(=O)[C@@H]1CCCN1C(=O)[C@H](Cc1ccc(O)cc1)NC(=O)[C@H](CCC(=O)[O-])NC(=O)[C@H](Cc1c[nH]c2ncccc12)NC(=O)[C@H](Cc1ccc(O)cc1)NC(=O)[C@@H](NC(=O)[C@H](CC(=O)[O-])N(C)C(=O)[C@@H]1CC(=O)NCCCC[C@H](NC(C)=O)C(=O)N[C@@H](C(C)C)C(=O)N[C@@H](CCC(=O)O)C(=O)N[C@@H](CCCNC(=N)N)C(=O)N[C@@H](Cc2ccccc2)C(=O)N1)C(C)(C)C)C1CCCCC1)C(=O)[O-])C(=O)[O-].[Na+].[Na+].[Na+].[Na+] [zilucoplan]
- effects on zilucoplan exposure [1]: No effects
- fraction introduced to upper reservoir diffused to lower reservoir ([2]; 24 hours): more than 60%
- fraction introduced to upper reservoir diffused to lower reservoir ([2]; after 12 hours): Greater than 20%
- C5b-9 deposition [3]: absent
- binding to surface-bound C5b-9 or sC5b-9 [4]: does not bind
- Zilucoplan biodistribution % (tissue AUC as percentage of plasma AUC) ([5]; Bone): 15.3%
- Zilucoplan biodistribution % (tissue AUC as percentage of plasma AUC) ([5]; Brain): 0.9%
- Zilucoplan biodistribution % (tissue AUC as percentage of plasma AUC) ([5]; Fat): 16.2%
- Zilucoplan biodistribution % (tissue AUC as percentage of plasma AUC) ([5]; Heart): 22.9%
- Zilucoplan biodistribution % (tissue AUC as percentage of plasma AUC) ([5]; Large Intestine): 21.7%
- Zilucoplan biodistribution % (tissue AUC as percentage of plasma AUC) ([5]; Liver): 27.1%
- Zilucoplan biodistribution % (tissue AUC as percentage of plasma AUC) ([5]; Lung): 37.5%
- Zilucoplan biodistribution % (tissue AUC as percentage of plasma AUC) ([5]; Lymph nodes): 12.8%
- Zilucoplan biodistribution % (tissue AUC as percentage of plasma AUC) ([5]; Muscle): 7.0%
- Zilucoplan biodistribution % (tissue AUC as percentage of plasma AUC) ([5]; Pancreas): 15.8%
- Zilucoplan biodistribution % (tissue AUC as percentage of plasma AUC) ([5]; Small Intestine): 10.9%
- Zilucoplan biodistribution % (tissue AUC as percentage of plasma AUC) ([5]; Spleen): 15.5%
- Zilucoplan biodistribution % (tissue AUC as percentage of plasma AUC) ([5]; Stomach): 8.5%
- Zilucoplan biodistribution % (tissue AUC as percentage of plasma AUC) ([5]; Testes): 15.5%
- Zilucoplan biodistribution % (tissue AUC as percentage of plasma AUC) ([5]; Thymus): 7.8%
- binding and inhibitory activities [6]: not affected
- Zilucoplan pharmacodynamics [7]: did not change
- Zilucoplan pharmacokinetics [7]: did not change
- changes in zilucoplan levels [8]: no changes
